# Measured values published in patent publication US20240114903A1, “SYNERGISTIC MIXTURES COMPRISING PYRETHRUM FOR ARTHROPOD TOXICITY AND REPELLENCY” (University of Florida Research Foundation, Incorporated, priority 2021, published 2024).
# Structures can show the parent of a compound that is named as a salt. Where two headings read alike, the source gives them in different places.
# Assays:
# [1] = system: Orlando strain Aedes aegypti females; settings: essential oil or PBO alone, topical
# Description: Plant essential oils were obtained from Berje, Inc. (Carteret, NJ, USA). […] Sucrose for sugar water was obtained from Domino (Baltimore, MD, USA).
# Pupae were provided by the USDA prior to experiments.
# J. Med. Entomol. […] Topical applications were performed by anesthetizing adult female mosquitoes on ice for 5 min, and then placing them on a cold, glass Petri dish to prevent reanimation. A Whatman No. 2 filter paper was used to prevent mosquitoes from coming in contact with excess condensation. A 0.2 μL volume of each treatment was applied to the pronotum of each mosquito using a Hamilton (Reno, NV, USA) repeating applicator with a gastight Hamilton syringe and placed in 470 mL deli paper cups. […] Ten mosquitoes were treated for each concentration representing one replicate, and at least three different cohorts of mosquitoes were used for each concentration in an effort to control for biological variability in the mosquitoes produced by the Orlando colony. A cohort was defined as a distinct rearing group (i.e., adult mosquitoes obtained from distinct batches of eggs placed in water to initiate development each week). Controls were performed using the vehicle, ethanol. Tulle fabric, fastened to the cup with a deli cup lid rim (center removed), was used to keep mosquitoes from escaping. Deli cups containing ten treated mosquitoes per concentration per replicate were placed in an incubator for the remainder of the experimental interval and kept at the same temperature and light cycle as during rearing. Knockdown, defined as the inability to fly or maintain normal standing posture, was recorded at 1 h, and mortality was recorded at 24 h. Mortality was defined as no movement, even after gently tapping the cup several times to assess response.
# VI. Potentiation and antagonism of organophosphorus and carbamate insecticides. Econ. Entomol. […] To compare effects at discrete doses to one another or between those and control, an ANOVA (α=0.05) with a Tukey's post-test was used with an α value of 0.05.
# [2] = system: female Aedes aegypti mosquitoes; assay type: in vivo; settings: screened individually at the sublethal concentrations used in the mixtures (TCA 10, TFA 50 μg/cm^2)
compound,measurement,setting,value
"CCCCOCCOCCOCc1cc2c(cc1CCC)OCO2 [PBO, Piperonyl butoxide]","1 h % Knockdown ± SE, Synergist",[1]; 2 μg/insect,6.7 ± 3.7%
same,"24 h % Mortality ± SE, Synergist",[1]; 2 μg/insect,6.7 ± 2.4%
same,"1 h % Knockdown ± SE, Synergist",[1]; 10 μg/insect,21.7 ± 4 %
same,"24 h % Mortality ± SE, Synergist","[1]; 10 μg/insect, listed as Piperonyl butoxide (PBO)",statistically significant
"CC(C)=CC1C(C(=O)O)C1(C)C (stereo not drawn) [TCA, 1R-trans-chrysanthemic acid]",toxicity by themselves,[2],no toxicity
"CC1(C)[C@H](C=C(Cl)Cl)[C@H]1C(=O)O [TFA, (1R,3S)-3-(2,2-dichloroethenyl)-2,2-dimethylcyclopropanecarboxylic acid]",toxicity by themselves,[2],no toxicity
